Seven molecules from US20260035376A1, “COMPOSITIONS AND METHODS FOR INHIBITION OF RAS” (TheRas, Inc., priority 2022, published 2026) can be followed below.

As a reminder, the IC50 is the midpoint of a concentration-inhibition curve.

The subject of test [1] is KRAS G12V protein/effector signaling in SW620 cells. Nature of the test: Cell-based pERK HTRF assay in SW620 cell. The settings on record: Homo sapiens, SW-620, 1 h incubation. The protocol: pERK assay (Perkin Elmer) was used to determine the effectiveness of compounds in disrupting KRAS G12V protein/effector signaling in cells.
On Day 1, cells (SW620) were seeded into 96-well plates at 3×10^4 cells/well in 80 μL complete growth media (DMEM, 10% FBS).
(§1) On Day 2, cells were treated with compounds at 0.25% DMSO. The source plate was created with compounds diluted in media at 5-fold the final assay concentration. The compounds were run in a 9-point concentration curve starting at 10 μM, with a half-log dilution between concentrations. 20 μL was transferred onto the cell plates (final volume in wells was 100 μL). Plates were harvested after 1 h incubation by aspirating media and adding kit-supplied 1× supplemented lysis buffer to all wells (50 μL per well). Plates were then placed on a plate shaker and incubated at 850 rpm for an additional 30 min.
Antibody mixture solution was prepared by diluting aliquoted d2 and Eu Cryptate antibodies 1:20 in kit supplied detection buffer, and mixing the diluted antibodies solutions (1:1 v:v). Four μL of this solution was then added to a 384-well detection plate (Perkin Elmer; 6008230).
(§2) Samples were homogenized by pipetting up and down and then transferred (16 μL of cell lysates) from the 96-well cell culture plate to two wells of the HTRF 384-well detection plate containing the antibody solution. Plates were centrifuged (524 g for 1 min) and allowed to incubate between 4 and 24 h at room temperature. Maximum signal was reached after 4 h incubation time and remained stable over a period of 24 hours. Therefore, readings could be made between 4 and 24 h of incubation. Plates were centrifuged again (524 g for 1 min), then analyzed on the EnVision plate reader using the following settings: Excitation 320 nm, Bandwidth 75 nm; Emission 615 nm, Bandwidth 85 nm; Gain 100%; Flashes 100; Lag 60 μs.
Background: TR-FRET usually uses a lanthanide donor and a delayed reading to cut background.

Test [2] has as its system KRAS G12D protein/effector signaling in GP2d cells. Description: Cell-based pERK HTRF assay in GP2d cell. The settings on record: 1 h, 60 min incubation. The protocol: A pERK assay (Perkin Elmer) was used to determine the effectiveness of compounds in disrupting KRAS G12D protein/effector signaling in cells.
On Day 1, cells (GP2d) were seeded into 96-well plates at 3×10^4 cells/well in 80 μL complete growth media (DMEM, 10% FBS).
as §1, with “[…],” for “10 μM,”, “60 min” for “1 h”
Antibody mixture solution was prepared by diluting aliquoted d2 and Eu Cryptate antibodies 1:20 in kit supplied detection buffer, and mixing the diluted antibodies solutions (1:1 v:v). 4 μL of this solution was then added to a 384-well detection plate (Perkin Elmer; 6008230).
as §2

With `COC[C@H](C)Oc1nc(N2CC3CCC(C2)N3)c2cc(C(F)(F)F)c(-c3ccc(F)c4sc(N)c(C#N)c34)c(F)c2n1` [Compound 71], the IC50 in test [1] was more than 10 µM; in test [2] it was not above 0.1 µM.

As for `N#Cc1c(N)sc2c(F)ccc(-c3c(C(F)(F)F)cc4c(N5CC6CCC(C5)N6)nc(OC5CCOCC5)nc4c3F)c12` [Compound 70], the IC50 in test [1] was more than 10 µM; in test [2] it was not above 0.1 µM.

Take `N#Cc1c(N)sc2c(F)ccc(-c3c(C(F)(F)F)cc4c(N5CC6CCC(C5)N6)nc(O[C@H]5CCOC5)nc4c3F)c12` [Compound 69]: the IC50 is more than 10 µM in test [1] and not above 0.1 µM in test [2].

On to `COC[C@@H](C)Oc1nc(N2CC3CCC(C2)N3)c2cc(C(F)(F)F)c(-c3ccc(F)c4sc(N)c(C#N)c34)c(F)c2n1` [Compound 67], for which the half-maximal inhibitory concentration (IC50) in test [1] is more than 10 µM; in test [2] it was not above 0.1 µM.

As for `CO[C@H](C)COc1nc(N2CC3CCC(C2)N3)c2cc(C(F)(F)F)c(-c3ccc(F)c4sc(N)c(C#N)c34)c(F)c2n1` [Compound 66], the IC50 in test [1] was more than 10 µM; in test [2], not above 0.1 µM.

On to `CO[C@@H](C)COc1nc(N2CC3CCC(C2)N3)c2cc(C(F)(F)F)c(-c3ccc(F)c4sc(N)c(C#N)c34)c(F)c2n1` [Compound 72], for which the IC50 in test [1] was more than 10 µM; in test [2], not above 0.1 µM.

With `N#Cc1c(N)sc2c(F)ccc(-c3c(C(F)(F)F)cc4c(N5CC6CCC(C5)N6)nc(O[C@@H]5CCOC5)nc4c3F)c12` [Compound 68], the IC50 in test [1] is more than 10 µM; in test [2] it was not above 0.1 µM.
